The results in this text go back to patent US11395847B2, “Acylated GLP-1/GLP-2 dual agonists” (Zealand Pharma A/S, priority 2016, dated 2022).

The target in one test is T1, human GLP-1 receptor (Homo sapiens, UniProt P43220).
T1 construct: expressed in transfected cells
The test can be described thus: GLP-1 receptor potency assay (cAMP ALPHASCREEN, HEK293 cells stably expressing GLP-1 R). The class given is cell-based. Conditions: cAMP response, HEK293 cells expressing human GLP-1 R. In short, it runs like this: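 Clonal HEK293 line stably transfected with human GLP-1R (G418-selected) was treated with test compounds and the cAMP response quantified by ALPHASCREEN. Signals were normalized to positive control and vehicle, with EC50 and maximal response taken from concentration-response curves.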

In the next test the target is T2, human GLP-2 receptor (Homo sapiens, UniProt O95838, D470N).
T2 construct: expressed in transfected cells
T2 sequence (O95838 1-553 D470N): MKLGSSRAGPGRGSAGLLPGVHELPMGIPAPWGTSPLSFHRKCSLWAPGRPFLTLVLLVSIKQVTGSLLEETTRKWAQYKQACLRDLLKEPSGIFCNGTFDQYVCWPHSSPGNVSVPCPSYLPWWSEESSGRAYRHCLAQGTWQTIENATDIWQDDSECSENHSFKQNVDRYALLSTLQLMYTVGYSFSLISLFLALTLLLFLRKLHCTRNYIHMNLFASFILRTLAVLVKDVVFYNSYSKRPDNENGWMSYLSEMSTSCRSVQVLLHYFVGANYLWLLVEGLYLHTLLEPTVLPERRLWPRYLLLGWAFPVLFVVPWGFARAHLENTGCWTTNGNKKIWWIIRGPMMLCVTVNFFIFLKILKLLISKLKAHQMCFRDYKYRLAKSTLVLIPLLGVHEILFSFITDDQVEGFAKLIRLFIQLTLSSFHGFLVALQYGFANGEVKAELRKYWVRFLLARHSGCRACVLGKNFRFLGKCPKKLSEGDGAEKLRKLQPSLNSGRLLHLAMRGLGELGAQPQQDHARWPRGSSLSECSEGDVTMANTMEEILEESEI
The test can be described thus: GLP-2 receptor potency assay (cAMP ALPHASCREEN, HEK293 cells stably expressing GLP-2 R). In kind it is cell-based. Conditions: cAMP response, HEK293 cells expressing human GLP-2 R; read-out: EC50 GLP-2. The essentials: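 HEK293 clones stably transfected with the human GLP-2 receptor, selected with G418, were used. Intracellular cAMP was quantified by AlphaScreen. Responses were normalised to positive and vehicle controls, and EC50 and maximal response were taken from concentration-response curves.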
A general note: In Alpha technology, singlet oxygen from a donor bead excites a nearby acceptor bead.

pEC50: −log10 of the molar value. Where a SMILES comes first, the peptide text is derived from it.

T1 sequence (P43220 24-463): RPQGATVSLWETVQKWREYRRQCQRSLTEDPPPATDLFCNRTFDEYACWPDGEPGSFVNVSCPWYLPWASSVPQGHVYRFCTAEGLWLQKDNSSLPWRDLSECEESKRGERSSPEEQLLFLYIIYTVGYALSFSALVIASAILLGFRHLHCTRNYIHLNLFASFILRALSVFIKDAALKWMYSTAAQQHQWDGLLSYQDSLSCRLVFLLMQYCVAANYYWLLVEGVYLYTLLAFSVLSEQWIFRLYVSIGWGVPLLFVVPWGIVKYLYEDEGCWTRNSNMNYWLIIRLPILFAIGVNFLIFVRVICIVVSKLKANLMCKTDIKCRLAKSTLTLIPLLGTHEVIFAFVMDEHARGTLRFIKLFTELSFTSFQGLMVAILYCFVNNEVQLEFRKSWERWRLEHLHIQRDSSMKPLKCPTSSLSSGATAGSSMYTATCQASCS

With `CC[C@H](C)[C@H](NC(=O)[C@H](Cc1ccccc1)NC(=O)[C@H](CC(=O)O)NC(=O)[C@H](CCCCNC(=O)COCCOCCNC(=O)[C@H](CCCCN)NC(=O)[C@H](CCC(=O)O)NC(=O)[C@H](CCCCN)NC(=O)CC[C@H](NC(=O)CCCCCCCCCCCCCCCCCCC(=O)O)C(=O)O)NC(=O)[C@H](C)NC(=O)[C@H](C)NC(=O)[C@H](CCC(N)=O)NC(=O)[C@H](CCC(=O)O)NC(=O)[C@H](CC(=O)O)NC(=O)[C@H](CC(C)C)NC(=O)[C@@H](NC(=O)[C@@H](NC(=O)[C@H](C)NC(=O)[C@H](CC(C)C)NC(=O)[C@H](CCC(=O)O)NC(=O)[C@H](CO)NC(=O)[C@@H](NC(=O)[C@H](Cc1ccccc1)NC(=O)[C@@H](NC(=O)CNC(=O)[C@H](CCC(=O)O)NC(=O)C(C)(C)NC(=O)[C@@H](N)Cc1c[nH]cn1)[C@@H](C)O)[C@@H](C)O)[C@@H](C)O)[C@@H](C)CC)C(=O)N[C@@H](C)C(=O)N[C@@H](Cc1c[nH]c2ccccc12)C(=O)N[C@@H](CC(C)C)C(=O)N[C@H](C(=O)N[C@@H](CCC(=O)O)C(=O)N[C@@H](Cc1c[nH]cn1)C(=O)N[C@@H](CCCCN)C(=O)N[C@H](C(=O)N[C@H](C(=O)N[C@@H](CC(=O)O)C(=O)O)[C@@H](C)O)[C@@H](C)CC)[C@@H](C)CC` [Compound 65] (HELM PEPTIDE1{H.[Aib].E.G.T.F.T.S.E.L.A.T.I.L.D.E.Q.A.A.K.D.F.I.A.W.L.I.E.H.K.I.T.D}|PEPTIDE2{[O=C(O)CCCCCCCCCCCCCCCCCCC(=O)[*:2]].[gGlu].K.E.K.[O=C(COCCOCCN[*:1])[*:2]]}$PEPTIDE1,PEPTIDE2,20:R3-6:R2$$$V2.0), the pEC50 (commonly the negative decadic logarithm of the EC50, by convention in mol/L) on human GLP-1 receptor is 9.89; at human GLP-2 receptor it was 9.46.
With `CC[C@H](C)[C@H](NC(=O)[C@H](Cc1ccccc1)NC(=O)[C@H](CC(=O)O)NC(=O)[C@H](CCCNC(=N)N)NC(=O)[C@H](C)NC(=O)[C@H](C)NC(=O)[C@H](CCCCNC(=O)COCCOCCNC(=O)[C@H](CCCCN)NC(=O)[C@H](CCC(=O)O)NC(=O)[C@H](CCCCN)NC(=O)CC[C@H](NC(=O)CCCCCCCCCCCCCCCCCCC(=O)O)C(=O)O)NC(=O)[C@H](C)NC(=O)[C@H](CC(=O)O)NC(=O)[C@H](CC(C)C)NC(=O)[C@@H](NC(=O)[C@@H](NC(=O)[C@H](C)NC(=O)[C@H](CC(C)C)NC(=O)[C@H](CCC(=O)O)NC(=O)[C@H](CO)NC(=O)[C@@H](NC(=O)[C@H](Cc1ccccc1)NC(=O)[C@H](CO)NC(=O)CNC(=O)[C@H](CCC(=O)O)NC(=O)C(C)(C)NC(=O)[C@@H](N)Cc1c[nH]cn1)[C@@H](C)O)[C@@H](C)O)[C@@H](C)CC)C(=O)N[C@@H](C)C(=O)N[C@@H](Cc1c[nH]c2ccccc12)C(=O)N[C@@H](CC(C)C)C(=O)N[C@H](C(=O)N[C@@H](CCC(=O)O)C(=O)N[C@@H](Cc1c[nH]cn1)C(=O)N[C@@H](CCCCN)C(=O)N[C@H](C(=O)N[C@H](C(=O)N[C@@H](CC(=O)O)C(=O)O)[C@@H](C)O)[C@@H](C)CC)[C@@H](C)CC` [Compound 62] (HELM PEPTIDE1{H.[Aib].E.G.S.F.T.S.E.L.A.T.I.L.D.A.K.A.A.R.D.F.I.A.W.L.I.E.H.K.I.T.D}|PEPTIDE2{[O=C(O)CCCCCCCCCCCCCCCCCCC(=O)[*:2]].[gGlu].K.E.K.[O=C(COCCOCCN[*:1])[*:2]]}$PEPTIDE1,PEPTIDE2,17:R3-6:R2$$$V2.0), the pEC50 on human GLP-1 receptor was 9.57; on human GLP-2 receptor, 9.82.
In the case of `CC[C@H](C)[C@H](NC(=O)[C@H](Cc1ccccc1)NC(=O)[C@H](CC(=O)O)NC(=O)[C@H](CCCNC(=N)N)NC(=O)[C@H](C)NC(=O)[C@H](C)NC(=O)[C@H](CC(C)C)NC(=O)[C@H](CCCCNC(=O)CC[C@H](NC(=O)CCCCCCCCCCCCCCCCC(=O)O)C(=O)O)NC(=O)[C@H](CC(=O)O)NC(=O)[C@H](CC(C)C)NC(=O)[C@@H](NC(=O)[C@@H](NC(=O)[C@H](C)NC(=O)[C@H](CC(C)C)NC(=O)[C@H](CCC(=O)O)NC(=O)[C@H](CO)NC(=O)[C@H](CO)NC(=O)[C@H](Cc1ccccc1)NC(=O)[C@@H](NC(=O)CNC(=O)[C@H](CCC(=O)O)NC(=O)C(C)(C)NC(=O)[C@@H](N)Cc1c[nH]cn1)[C@@H](C)O)[C@@H](C)O)[C@@H](C)CC)C(=O)N[C@@H](C)C(=O)N[C@@H](Cc1c[nH]c2ccccc12)C(=O)N[C@@H](CC(C)C)C(=O)N[C@H](C(=O)N[C@@H](CCC(=O)O)C(=O)N[C@@H](Cc1c[nH]cn1)C(=O)N[C@@H](CCCCN)C(=O)N[C@H](C(=O)N[C@H](C(=O)N[C@@H](CC(=O)O)C(=O)O)[C@@H](C)O)[C@@H](C)CC)[C@@H](C)CC` [Compound 10] (HELM PEPTIDE1{H.[Aib].E.G.T.F.S.S.E.L.A.T.I.L.D.K.L.A.A.R.D.F.I.A.W.L.I.E.H.K.I.T.D}|PEPTIDE2{[O=C(O)CCCCCCCCCCCCCCCCC(=O)[*:2]].[gGlu]}$PEPTIDE1,PEPTIDE2,16:R3-2:R2$$$V2.0), the results for the pEC50 at human GLP-1 receptor and at human GLP-2 receptor were 8.74 and 10.06, respectively.
In the same order, the values of `CC[C@H](C)[C@H](NC(=O)[C@H](Cc1ccccc1)NC(=O)[C@H](CC(=O)O)NC(=O)[C@H](CCCNC(=N)N)NC(=O)[C@H](C)NC(=O)[C@H](C)NC(=O)[C@H](CCC(N)=O)NC(=O)[C@H](CCCCNC(=O)[C@H](CCCCN)NC(=O)[C@H](CCC(=O)O)NC(=O)[C@H](CCCCN)NC(=O)CC[C@H](NC(=O)CCCCCCCCCCCCCCCCCCC(=O)O)C(=O)O)NC(=O)[C@H](CC(=O)O)NC(=O)[C@H](CC(C)C)NC(=O)[C@@H](NC(=O)[C@@H](NC(=O)[C@H](C)NC(=O)[C@H](CC(C)C)NC(=O)[C@H](CCC(=O)O)NC(=O)[C@H](CO)NC(=O)[C@@H](NC(=O)[C@H](Cc1ccccc1)NC(=O)[C@@H](NC(=O)CNC(=O)[C@H](CCC(=O)O)NC(=O)C(C)(C)NC(=O)[C@@H](N)Cc1c[nH]cn1)[C@@H](C)O)[C@@H](C)O)[C@@H](C)O)[C@@H](C)CC)C(=O)N[C@@H](C)C(=O)N[C@@H](Cc1c[nH]c2ccccc12)C(=O)N[C@@H](CC(C)C)C(=O)N[C@H](C(=O)N[C@@H](CCC(N)=O)C(=O)N[C@@H](Cc1c[nH]cn1)C(=O)N[C@@H](CCCCN)C(=O)N[C@H](C(=O)N[C@H](C(=O)N[C@@H](CC(=O)O)C(=O)O)[C@@H](C)O)[C@@H](C)CC)[C@@H](C)CC` [Compound 51] (HELM PEPTIDE1{H.[Aib].E.G.T.F.T.S.E.L.A.T.I.L.D.K.Q.A.A.R.D.F.I.A.W.L.I.Q.H.K.I.T.D}|PEPTIDE2{[O=C(O)CCCCCCCCCCCCCCCCCCC(=O)[*:2]].[gGlu].K.E.K}$PEPTIDE1,PEPTIDE2,16:R3-5:R2$$$V2.0) are 10.70 and 9.74.
